What was measured:
Src = Src (Homo sapiens, UniProt P12931); test: Kinase activity assay, Src
Kit = Kit (Homo sapiens, UniProt P10721); test: Kinase activity assay, Kit
C-Raf = C-Raf (Homo sapiens, UniProt P04049); test: Kinase activity assay, C-Raf
B-Raf = B-Raf (Homo sapiens, UniProt P15056); test: Kinase activity assay, B-Raf; assay type: biochemical; details: read-out: activity toward kinase B-Raf, IC50
B-Raf V600E = B-Raf V600E (Homo sapiens, UniProt P15056, V600E); test: Kinase activity assay, B-Raf V600E; assay type: biochemical; details: read-out: activity toward kinase B-Raf V600E, IC50
A-Raf = target: T1, A-Raf (Homo sapiens, UniProt P10398); test: Kinase activity assay, A-Raf
T1 sequence (P10398 1-606): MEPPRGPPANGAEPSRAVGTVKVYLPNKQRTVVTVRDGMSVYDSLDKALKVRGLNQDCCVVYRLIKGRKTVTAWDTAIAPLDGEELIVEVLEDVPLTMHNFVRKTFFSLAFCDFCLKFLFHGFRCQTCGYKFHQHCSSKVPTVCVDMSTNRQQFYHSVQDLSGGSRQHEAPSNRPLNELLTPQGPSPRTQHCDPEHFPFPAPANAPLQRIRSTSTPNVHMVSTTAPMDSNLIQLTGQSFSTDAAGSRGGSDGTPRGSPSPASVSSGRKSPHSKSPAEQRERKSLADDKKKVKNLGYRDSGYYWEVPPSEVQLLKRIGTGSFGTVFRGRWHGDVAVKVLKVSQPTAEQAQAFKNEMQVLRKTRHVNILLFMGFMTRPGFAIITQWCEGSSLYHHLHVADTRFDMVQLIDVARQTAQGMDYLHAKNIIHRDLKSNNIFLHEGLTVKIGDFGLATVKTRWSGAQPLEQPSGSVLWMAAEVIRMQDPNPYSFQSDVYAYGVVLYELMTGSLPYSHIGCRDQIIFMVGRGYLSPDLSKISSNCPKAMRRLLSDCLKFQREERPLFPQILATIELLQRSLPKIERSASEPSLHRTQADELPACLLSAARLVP

Kdr = Kdr (Homo sapiens, UniProt P35968); test: Kinase activity assay, Kdr
Fms = Fms (Homo sapiens, UniProt P07333); test: Kinase activity assay, Fms
Fms, sequence (P07333 20-972): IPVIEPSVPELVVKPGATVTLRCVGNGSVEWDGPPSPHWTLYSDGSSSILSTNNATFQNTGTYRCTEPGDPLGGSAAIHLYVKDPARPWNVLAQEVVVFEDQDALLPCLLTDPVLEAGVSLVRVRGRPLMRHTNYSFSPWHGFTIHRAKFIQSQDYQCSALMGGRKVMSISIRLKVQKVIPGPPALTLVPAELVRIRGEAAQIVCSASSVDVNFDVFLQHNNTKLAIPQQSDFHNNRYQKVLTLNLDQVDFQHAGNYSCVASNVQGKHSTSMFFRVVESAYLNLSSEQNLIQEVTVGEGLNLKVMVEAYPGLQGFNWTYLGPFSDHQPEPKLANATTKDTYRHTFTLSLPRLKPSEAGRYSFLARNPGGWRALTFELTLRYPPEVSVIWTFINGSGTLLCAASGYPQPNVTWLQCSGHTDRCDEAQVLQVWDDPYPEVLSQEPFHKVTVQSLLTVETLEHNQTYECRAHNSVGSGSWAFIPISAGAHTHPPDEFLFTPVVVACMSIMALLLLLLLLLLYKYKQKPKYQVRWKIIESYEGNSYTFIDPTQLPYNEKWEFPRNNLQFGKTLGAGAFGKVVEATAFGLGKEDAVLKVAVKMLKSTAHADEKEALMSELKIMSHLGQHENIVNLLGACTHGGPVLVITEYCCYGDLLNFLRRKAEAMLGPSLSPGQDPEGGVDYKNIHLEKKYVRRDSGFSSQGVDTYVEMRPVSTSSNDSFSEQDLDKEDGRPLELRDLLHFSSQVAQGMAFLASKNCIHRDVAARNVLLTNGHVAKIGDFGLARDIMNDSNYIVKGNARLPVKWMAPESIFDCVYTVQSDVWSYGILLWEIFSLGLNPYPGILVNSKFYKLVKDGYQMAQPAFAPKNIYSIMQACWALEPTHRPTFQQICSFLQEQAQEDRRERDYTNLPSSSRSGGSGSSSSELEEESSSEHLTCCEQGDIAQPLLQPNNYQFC

Src, sequence (P12931 whole entry): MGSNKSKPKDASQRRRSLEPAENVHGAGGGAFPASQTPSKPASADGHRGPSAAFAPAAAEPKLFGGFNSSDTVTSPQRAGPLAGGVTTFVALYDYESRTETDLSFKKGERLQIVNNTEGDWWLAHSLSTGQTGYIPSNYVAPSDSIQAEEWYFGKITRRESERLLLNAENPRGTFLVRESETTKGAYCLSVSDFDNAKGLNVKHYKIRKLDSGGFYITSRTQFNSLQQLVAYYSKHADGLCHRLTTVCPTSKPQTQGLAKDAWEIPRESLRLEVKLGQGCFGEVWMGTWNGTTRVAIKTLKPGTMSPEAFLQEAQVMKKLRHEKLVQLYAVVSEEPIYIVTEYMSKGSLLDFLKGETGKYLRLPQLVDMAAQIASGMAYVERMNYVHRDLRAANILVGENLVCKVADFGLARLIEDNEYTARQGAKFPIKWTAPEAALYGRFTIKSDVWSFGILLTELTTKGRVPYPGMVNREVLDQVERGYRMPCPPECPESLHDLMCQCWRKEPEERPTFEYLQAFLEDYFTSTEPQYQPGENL
C-Raf, sequence (P04049 whole entry): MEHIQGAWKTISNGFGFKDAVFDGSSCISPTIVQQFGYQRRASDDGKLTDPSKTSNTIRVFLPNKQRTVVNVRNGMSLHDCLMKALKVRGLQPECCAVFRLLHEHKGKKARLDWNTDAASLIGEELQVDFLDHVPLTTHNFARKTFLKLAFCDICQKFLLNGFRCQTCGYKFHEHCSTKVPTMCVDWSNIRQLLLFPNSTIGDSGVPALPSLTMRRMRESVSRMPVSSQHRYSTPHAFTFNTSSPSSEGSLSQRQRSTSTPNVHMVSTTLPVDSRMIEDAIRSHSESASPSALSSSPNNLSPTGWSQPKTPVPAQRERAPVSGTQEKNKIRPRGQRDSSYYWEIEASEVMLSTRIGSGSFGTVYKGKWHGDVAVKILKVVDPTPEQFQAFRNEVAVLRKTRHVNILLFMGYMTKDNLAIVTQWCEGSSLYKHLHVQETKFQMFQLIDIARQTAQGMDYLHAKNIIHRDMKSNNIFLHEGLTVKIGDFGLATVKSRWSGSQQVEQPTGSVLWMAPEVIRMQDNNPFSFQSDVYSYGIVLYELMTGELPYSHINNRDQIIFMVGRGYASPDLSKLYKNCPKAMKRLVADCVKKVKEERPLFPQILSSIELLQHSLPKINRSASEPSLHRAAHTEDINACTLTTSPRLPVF
B-Raf V600E, sequence (P15056 whole entry V600E): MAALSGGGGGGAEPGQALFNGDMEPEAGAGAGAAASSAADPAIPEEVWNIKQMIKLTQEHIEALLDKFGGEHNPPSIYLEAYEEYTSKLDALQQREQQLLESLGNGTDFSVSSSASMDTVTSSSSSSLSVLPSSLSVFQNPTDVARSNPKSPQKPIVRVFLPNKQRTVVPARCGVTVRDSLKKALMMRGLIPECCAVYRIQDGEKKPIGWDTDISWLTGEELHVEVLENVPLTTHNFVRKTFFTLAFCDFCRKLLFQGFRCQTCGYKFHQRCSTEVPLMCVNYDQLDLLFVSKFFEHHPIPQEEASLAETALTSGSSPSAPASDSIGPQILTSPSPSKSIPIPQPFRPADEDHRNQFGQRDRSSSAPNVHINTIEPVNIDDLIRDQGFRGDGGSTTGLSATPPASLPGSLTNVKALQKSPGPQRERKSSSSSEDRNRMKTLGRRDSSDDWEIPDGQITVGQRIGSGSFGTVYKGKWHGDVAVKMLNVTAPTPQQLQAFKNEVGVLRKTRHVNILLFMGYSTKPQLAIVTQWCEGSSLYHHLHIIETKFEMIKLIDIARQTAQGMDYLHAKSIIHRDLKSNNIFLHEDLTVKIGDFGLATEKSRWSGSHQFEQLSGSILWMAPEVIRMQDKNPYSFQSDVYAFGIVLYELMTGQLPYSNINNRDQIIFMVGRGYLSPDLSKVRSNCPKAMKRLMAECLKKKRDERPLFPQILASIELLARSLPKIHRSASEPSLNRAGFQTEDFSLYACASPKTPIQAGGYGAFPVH
B-Raf, sequence (P15056 whole entry): as the sequence (P15056 whole entry V600E) above, with E600V counted along it
Kdr, sequence (P35968 20-1356): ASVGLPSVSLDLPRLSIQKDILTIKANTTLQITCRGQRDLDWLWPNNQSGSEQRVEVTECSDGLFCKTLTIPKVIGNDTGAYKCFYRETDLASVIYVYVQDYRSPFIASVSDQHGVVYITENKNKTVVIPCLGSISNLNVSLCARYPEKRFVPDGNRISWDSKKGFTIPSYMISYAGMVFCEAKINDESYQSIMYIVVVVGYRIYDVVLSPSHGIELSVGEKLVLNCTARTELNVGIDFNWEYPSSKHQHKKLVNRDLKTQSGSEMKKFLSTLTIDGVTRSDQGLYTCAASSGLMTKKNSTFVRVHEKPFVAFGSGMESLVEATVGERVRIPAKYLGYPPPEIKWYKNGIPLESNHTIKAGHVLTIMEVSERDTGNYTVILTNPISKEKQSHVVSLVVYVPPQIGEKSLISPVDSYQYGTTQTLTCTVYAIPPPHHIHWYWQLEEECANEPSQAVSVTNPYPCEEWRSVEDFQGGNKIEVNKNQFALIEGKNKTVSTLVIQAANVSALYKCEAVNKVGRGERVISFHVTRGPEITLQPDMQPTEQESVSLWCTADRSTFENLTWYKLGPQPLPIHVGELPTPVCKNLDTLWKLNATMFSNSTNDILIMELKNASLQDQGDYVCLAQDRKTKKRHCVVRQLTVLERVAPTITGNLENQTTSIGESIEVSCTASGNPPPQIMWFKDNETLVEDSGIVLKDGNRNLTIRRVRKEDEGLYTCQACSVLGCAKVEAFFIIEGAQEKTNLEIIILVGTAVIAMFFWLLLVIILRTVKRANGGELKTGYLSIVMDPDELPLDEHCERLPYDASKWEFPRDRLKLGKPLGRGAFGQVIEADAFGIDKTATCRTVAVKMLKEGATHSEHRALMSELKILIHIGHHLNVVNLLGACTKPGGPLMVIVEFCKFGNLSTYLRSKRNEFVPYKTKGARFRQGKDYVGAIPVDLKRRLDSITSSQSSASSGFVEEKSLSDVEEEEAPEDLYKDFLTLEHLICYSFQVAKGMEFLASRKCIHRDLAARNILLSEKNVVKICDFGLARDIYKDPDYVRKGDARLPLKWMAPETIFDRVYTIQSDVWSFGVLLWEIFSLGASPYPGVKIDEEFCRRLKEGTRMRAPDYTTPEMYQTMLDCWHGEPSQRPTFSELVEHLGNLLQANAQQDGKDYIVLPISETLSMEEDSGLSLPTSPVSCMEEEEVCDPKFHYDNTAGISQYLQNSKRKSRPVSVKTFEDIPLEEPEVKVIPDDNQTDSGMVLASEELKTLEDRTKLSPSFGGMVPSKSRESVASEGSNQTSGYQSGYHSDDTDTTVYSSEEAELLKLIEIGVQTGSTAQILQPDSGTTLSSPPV

IC50 (Src) [µM]	IC50 (Kit) [µM]	IC50 (C-Raf) [µM]	IC50 (B-Raf) [µM]	IC50 (B-Raf V600E) [µM]	IC50 (A-Raf) [µM]	IC50 (Kdr) [µM]	IC50 (Fms) [µM]	SMILES
≤ 10	≤ 10	≤ 10	≤ 10	≤ 10	≤ 10	≤ 10		N#Cc1ccnc2[nH]cc(C(=O)c3c(F)ccc(NS(=O)(=O)c4c(F)cccc4F)c3F)c12 [P-2037, N-[3-(4-Cyano-1H-pyrrolo[2,3-b]pyridine-3-carbonyl)-2,4-difluoro-phenyl]-2,6-difluoro-benzenesulfonamide]
≤ 10	≤ 10	≤ 10	≤ 10	≤ 10	≤ 10	≤ 10		N#Cc1ccnc2[nH]cc(C(=O)c3c(F)ccc(NS(=O)(=O)c4ccc(F)cc4F)c3F)c12 [P-2038, N-[3-(4-Cyano-1H-pyrrolo[2,3-b]pyridine-3-carbonyl)-2,4-difluoro-phenyl]-2,4-difluoro-benzenesulfonamide]
	≤ 10		≤ 10		≤ 10	≤ 10	≤ 10	O=C(c1cc(NS(=O)(=O)c2ccc(Cl)cc2)ccc1F)c1c[nH]c2ncccc12 [P-2113, 4-Chloro-N-[4-fluoro-3-(1H-pyrrolo[2,3-b]pyridine-3-carbonyl)-phenyl]-benzenesulfonamide]
	≤ 10				≤ 10	≤ 10	≤ 10	O=C(c1cc(NS(=O)(=O)c2cccc(C(F)(F)F)c2)ccc1F)c1c[nH]c2ncccc12 [P-2115, N-[4-Fluoro-3-(1H-pyrrolo[2,3-b]pyridine-3-carbonyl)-phenyl]-3-trifluoromethyl-benzenesulfonamide]
	≤ 10	≤ 10	≤ 10		≤ 10		≤ 10	O=C(c1cc(NS(=O)(=O)c2ccc(OC(F)(F)F)cc2)ccc1F)c1c[nH]c2ncccc12 [P-2116, N-[4-Fluoro-3-(1H-pyrrolo[2,3-b]pyridine-3-carbonyl)-phenyl]-4-trifluoromethoxy-benzenesulfonamide]
	≤ 10	≤ 10	≤ 10		≤ 10	≤ 10	≤ 10	O=C(c1cc(NS(=O)(=O)c2cccc(OC(F)(F)F)c2)ccc1F)c1c[nH]c2ncccc12 [P-2117, N-[4-Fluoro-3-(1H-pyrrolo[2,3-b]pyridine-3-carbonyl)-phenyl]-3-trifluoromethoxy-benzenesulfonamide]
≤ 10	≤ 10	≤ 10	≤ 10	≤ 10	≤ 10	≤ 10		CCCS(=O)(=O)Nc1ccc(F)c(C(=O)c2c[nH]c3nccc(C#N)c23)c1F [P-2209, Propane-1-sulfonic acid [3-(4-cyano-1H-pyrrolo[2,3-b]pyridine-3-carbonyl)-2,4-difluoro-phenyl]-amide]
≤ 10	≤ 10	≤ 10	≤ 10	≤ 10	≤ 10	≤ 10		CCCS(=O)(=O)Nc1ccc(F)c(C(=O)c2c[nH]c3ncc(C(=O)NOC)cc23)c1F [P-2238, 3-[2,6-Difluoro-3-(propane-1-sulfonylamino)-benzoyl]-1H-pyrrolo[2,3-b]pyridine-5-carboxylic acid methoxy-amide]
≤ 10	≤ 10	≤ 10	≤ 10	≤ 10	≤ 10	≤ 10	≤ 10	COc1cnc2[nH]cc(C(=O)c3c(F)ccc(NS(=O)(=O)C(C)C)c3F)c2c1 [P-2273, Propane-2-sulfonic acid [2,4-difluoro-3-(5-methoxy-1H-pyrrolo[2,3-b]pyridine-3-carbonyl)-phenyl]-amide]
	≤ 10	≤ 10			≤ 10		≤ 10	CC(C)CS(=O)(=O)Nc1ccc(F)c(C(=O)c2c[nH]c3ncc(-c4ccc(Cl)cc4)cc23)c1F [P-2297, 2-Methyl-propane-1-sulfonic acid {3-[5-(4-chloro-phenyl)-1H-pyrrolo[2,3-b]pyridine-3-carbonyl]-2,4-difluoro-phenyl}-amide]
≤ 10	≤ 10	≤ 10	≤ 10	≤ 10	≤ 10	≤ 10		COc1cnc2[nH]cc(C(=O)c3c(F)ccc(NS(=O)(=O)CC(C)C)c3F)c2c1 [P-2303, 2-Methyl-propane-1-sulfonic acid [2,4-difluoro-3-(5-methoxy-1H-pyrrolo[2,3-b]pyridine-3-carbonyl)-phenyl]-amide]
≤ 10	≤ 10	≤ 10	≤ 10	≤ 10	≤ 10	≤ 10	≤ 10	CC(C)CS(=O)(=O)Nc1ccc(F)c(C(=O)c2c[nH]c3ncc(Cl)cc23)c1F [P-2304, 2-Methyl-propane-1-sulfonic acid [3-(5-chloro-1H-pyrrolo[2,3-b]pyridine-3-carbonyl)-2,4-difluoro-phenyl]-amide]
≤ 10	≤ 10	≤ 10	≤ 10	≤ 10	≤ 10	≤ 10		Cc1cnc2[nH]cc(C(=O)c3c(F)ccc(NS(=O)(=O)CC(C)C)c3F)c2c1 [P-2305, 2-Methyl-propane-1-sulfonic acid [2,4-difluoro-3-(5-methyl-1H-pyrrolo[2,3-b]pyridine-3-carbonyl)-phenyl]-amide]
≤ 10	≤ 10	≤ 10	≤ 10	≤ 10	≤ 10			N#Cc1ccnc2[nH]cc(C(=O)c3c(F)ccc(NS(=O)(=O)CC(F)(F)F)c3F)c12 [P-2341, 2,2,2-Trifluoro-ethanesulfonic acid [3-(4-cyano-1H-pyrrolo[2,3-b]pyridine-3-carbonyl)-2,4-difluoro-phenyl]-amide]
≤ 10	≤ 10	≤ 10	≤ 10	≤ 10	≤ 10			N#Cc1ccnc2[nH]cc(C(=O)c3c(F)ccc(NS(=O)(=O)C4CCCCC4)c3F)c12 [P-2369, Cyclohexanesulfonic acid [3-(4-cyano-1H-pyrrolo[2,3-b]pyridine-3-carbonyl)-2,4-difluoro-phenyl]-amide]
≤ 10	≤ 10	≤ 10	≤ 10	≤ 10	≤ 10	≤ 10		COc1cnc2[nH]cc(C(=O)c3c(F)ccc(NS(=O)(=O)N4CCCC4)c3F)c2c1 [P-2374, Pyrrolidine-1-sulfonic acid [2,4-difluoro-3-(5-methoxy-1H-pyrrolo[2,3-b]pyridine-3-carbonyl)-phenyl]-amide]
≤ 10	≤ 10			≤ 10	≤ 10	≤ 10	≤ 10	O=C(c1c(F)ccc(NS(=O)(=O)N2CCOCC2)c1F)c1c[nH]c2ncc(Cl)cc12 [P-2390, Morpholine-4-sulfonic acid [3-(5-chloro-1H-pyrrolo[2,3-b]pyridine-3-carbonyl)-2,4-difluoro-phenyl]-amide]
≤ 10	≤ 10	≤ 10	≤ 10	≤ 10	≤ 10			N#Cc1cnc2[nH]cc(C(=O)c3c(F)ccc(NS(=O)(=O)N4CCOCC4)c3F)c2c1 [P-2393, Morpholine-4-sulfonic acid [3-(5-cyano-1H-pyrrolo[2,3-b]pyridine-3-carbonyl)-2,4-difluoro-phenyl]-amide]
≤ 10	≤ 10	≤ 10	≤ 10	≤ 10	≤ 10	≤ 10		O=C(c1c(F)ccc(NS(=O)(=O)N2CCCC2)c1F)c1c[nH]c2nccc(Cl)c12 [P-2398, Pyrrolidine-1-sulfonic acid [3-(4-chloro-1H-pyrrolo[2,3-b]pyridine-3-carbonyl)-2,4-difluoro-phenyl]-amide]
				≤ 10	≤ 10	≤ 10	≤ 10	CCCS(=O)(=O)Nc1ccc(F)c(C(=O)c2c[nH]c3ncccc23)c1 [P-2437, Propane-1-sulfonic acid [4-fluoro-3-(1H-pyrrolo[2,3-b]pyridine-3-carbonyl)-phenyl]-amide]

From patent US20120122860A1, “SOLID FORMS OF SULFONAMIDES AND AMINO ACIDS” (Plexxikon, Inc., priority 2009, published 2012)
